In ChEMBL document CHEMBL1151670, “A new quassinoid from Castela texana” (J Nat Prod, 1996):
≈ marks a conversion by molar mass, not a printed value. Calls of active or inactive are those of the source. No cut-off for these calls is given here.

Legend:
K562 [1] = test: Cytotoxicity against human K562 cells at <=10 ug/ml after 2 to 7 days by neutral red assay; assay type: functional, cell-based
KB [2] = test: Cytotoxicity against human KB cells <=10 ug/ml after 2 to 7 days by neutral red assay; assay type: functional, cell-based
BT-549 [3] = test: Cytotoxicity against human BT549 cells <=10 ug/ml after 2 to 7 days by neutral red assay; assay type: functional, cell-based
SK-OV-3 [4] = test: Cytotoxicity against human SKOV3 cells <=10 ug/ml after 2 to 7 days by neutral red assay; assay type: functional, cell-based
Vero [5] = test: Cytotoxicity against african green monkey Vero cells <=10 ug/ml after 2 to 7 days by neutral red assay; assay type: cell-based; details: chlorocebus sabaeus
Plasmodium falciparum [6] = test: Antimalarial activity against chloroquine-sensitive Plasmodium falciparum D6 after 48 hrs as LDH activity by Makler assay; assay type: functional, organism-based; details: D6, 48 h
Plasmodium falciparum [7] = test: Antimalarial activity against chloroquine-resistant Plasmodium falciparum W2 after 48 hrs as LDH activity by Makler assay; assay type: functional, organism-based; details: W2, 48 h
Giardia intestinalis = test: Antiparasitic activity against Giardia intestinalis ATCC 30888 at <=20 ug/ml after 24 hrs by XTT assay; assay type: functional, organism-based; details: Giardia duodenalis
Crithidia fasciculata = test: Trypanocidal activity against Crithidia fasciculata ATCC 11745 at <=20 ug/ml after 48 hrs by SRB assay; assay type: functional, organism-based
Plasmodium falciparum [8] = test: Antimalarial activity against chloroquine-sensitive Plasmodium falciparum D6 at <=10 ug/ml after 48 hrs as LDH activity by Makler assay; assay type: functional, organism-based
Plasmodium falciparum [9] = test: Antimalarial activity against chloroquine-resistant Plasmodium falciparum W2 at <=10 ug/ml after 48 hrs as LDH activity by Makler assay; assay type: functional, organism-based
K562 [10] = test: Cytotoxicity against human K562 cells after 2 to 7 days by neutral red assay; assay type: functional, cell-based
KB [11] = test: Cytotoxicity against human KB cells after 2 to 7 days by neutral red assay; assay type: functional, cell-based
BT-549 [12] = test: Cytotoxicity against human BT549 cells after 2 to 7 days by neutral red assay; assay type: functional, cell-based
SK-OV-3 [13] = test: Cytotoxicity against human SKOV3 cells after 2 to 7 days by neutral red assay; assay type: functional, cell-based
Vero [14] = test: Cytotoxicity against african green monkey Vero cells after 2 to 7 days by neutral red assay; assay type: cell-based; details: chlorocebus sabaeus

| SMILES | Activity (K562 [1]) | Activity (KB [2]) | Activity (BT-549 [3]) | Activity (SK-OV-3 [4]) | Activity (Vero [5]) | IC50 (Plasmodium falciparum [6]) | IC50 (Plasmodium falciparum [7]) | Activity (Giardia intestinalis) | Activity (Crithidia fasciculata) | Activity (Plasmodium falciparum [8]) | Activity (Plasmodium falciparum [9]) | IC50 (K562 [10]) | IC50 (KB [11]) | IC50 (BT-549 [12]) | IC50 (SK-OV-3 [13]) | IC50 (Vero [14]) |
| --- | --- | --- | --- | --- | --- | --- | --- | --- | --- | --- | --- | --- | --- | --- | --- | --- |
| C[C@@H]1C[C@H](O)C(=O)[C@]2(C)[C@H]3[C@H](OC(=O)/C=C/c4ccc(O)cc4)C(=O)[C@H](C)[C@@H]4CC(=O)O[C@H](C[C@@H]12)[C@]34C | inactive | inactive | inactive | inactive | Not Active | 0.92 µg/mL (≈ 1.8 µM) | 0.75 µg/mL (≈ 1.47 µM) | inactive | inactive |  |  |  |  |  |  |  |
| CC1=C[C@H](O)[C@@H](O)[C@]2(C)[C@H]3[C@]4(O)OC[C@]35[C@H]([C@@H](C)[C@H]4O)[C@@H](O[C@@H]3O[C@H](CO)[C@@H](O)[C@H](O)[C@H]3O)C(=O)O[C@@H]5C[C@@H]12 | inactive | inactive | inactive | inactive | Not Active |  |  |  |  | inactive | inactive |  |  |  |  |  |
| C[C@@H]1C[C@H](O)C(=O)[C@]2(C)[C@H]3[C@H](O)C(=O)[C@H](C)[C@@H]4CC(=O)O[C@H](C[C@@H]12)[C@]34C [AMAROLIDE] | inactive | inactive | inactive | inactive | Not Active |  |  |  |  | inactive | inactive |  |  |  |  |  |
| CC1=CC(=O)[C@@H](O)[C@]2(C)[C@H]3[C@@]4(O)OC[C@@]35[C@@H](C[C@@H]12)OC(=O)C[C@H]5[C@@H](C)[C@H]4O [CHAPARRINONE] |  |  |  |  |  | 0.25 µg/mL (≈ 0.661 µM) | 0.2 µg/mL (≈ 0.529 µM) |  |  |  |  | 1.8 µg/mL (≈ 4.76 µM) | 1.2 µg/mL (≈ 3.17 µM) | 0.8 µg/mL (≈ 2.11 µM) | 0.5 µg/mL (≈ 1.32 µM) | 1.5 µg/mL (≈ 3.96 µM) |
| CC1=C[C@H](O)[C@@H](O)[C@]2(C)[C@H]3[C@@]4(O)OC[C@@]35[C@@H](C[C@@H]12)OC(=O)C[C@H]5[C@@H](C)[C@H]4O [CHAPARRIN] | inactive | inactive | inactive | inactive | Not Active | 0.25 µg/mL (≈ 0.657 µM) | 0.35 µg/mL (≈ 0.92 µM) |  |  |  |  |  |  |  |  |  |
| COc1cccc2c1C(=O)c1c(O)c3c(c(O)c1C2=O)C[C@@](O)(C(=O)CO)C[C@@H]3O[C@H]1C[C@H](N)[C@H](O)[C@H](C)O1 [DOXORUBICIN] |  |  |  |  |  |  |  |  |  |  |  | 0.035 µg/mL (≈ 0.0644 µM) | 0.12 µg/mL (≈ 0.221 µM) | 0.008 µg/mL (≈ 0.0147 µM) | 0.01 µg/mL (≈ 0.0184 µM) | 1.5 µg/mL (≈ 2.76 µM) |
| CC1=CC(=O)[C@@H](O)[C@]2(C)[C@H]3[C@]4(O)OC[C@]35[C@H]([C@@H](C)[C@H]4O)[C@@H](O)C(=O)O[C@@H]5C[C@@H]12 [GLAUCARUBOLONE] |  |  |  |  |  | 0.125 µg/mL (≈ 0.317 µM) | 0.2 µg/mL (≈ 0.507 µM) |  |  |  |  | 0.6 µg/mL (≈ 1.52 µM) | 1 µg/mL (≈ 2.54 µM) | 0.4 µg/mL (≈ 1.01 µM) | 0.8 µg/mL (≈ 2.03 µM) | 1.5 µg/mL (≈ 3.8 µM) |
| CC(=O)O[C@H]1C(=O)O[C@@H]2C[C@H]3C(C)=CC(=O)[C@@H](O)[C@]3(C)[C@H]3[C@]4(O)OC[C@]32[C@@H]1[C@@H](C)[C@H]4O [HOLACANTHONE] |  |  |  |  |  | 0.01 µg/mL (≈ 0.0229 µM) | 0.012 µg/mL (≈ 0.0275 µM) |  |  |  |  | 1 µg/mL (≈ 2.29 µM) | 0.5 µg/mL (≈ 1.15 µM) | 0.3 µg/mL (≈ 0.687 µM) | 0.5 µg/mL (≈ 1.15 µM) | 1 µg/mL (≈ 2.29 µM) |
